Patent US9290473B2, “Inhibitors of phosphatidylinositol-3-kinase (PI3) and inducers of nitric oxide (NO)” (COUCIL OF SCIENTIFIC & INDUSTRIAL RESEARCH, priority 2009, dated 2016)
Read-outs that look alike come from different tables or passages of the source.

How the values were obtained:
[1] = system: pancreatic cancer cell line MIA PaCa-2; assay: Cell viability, trypan blue exclusion, MIA PaCa-2; format: cell-based, human; settings: read-out: Activity (IC50) MIAPaCa-2
Text: (§1) Following cancer cell lines were used: chronic myeloid leukemia cell lines K562, KU812; acute myeloid leukemia cell lines HL60, U937; T-lymphoblastic leukemia cell line Molt-4; prostate cancer cell line PC-3; breast cancer cell line MCF-7; pancreatic cancer cell line MIA PaCa-2. These cancer cell lines were maintained in tissue culture in standard growth medium containing 10% heat-inactivated fetal bovine serum (FBS). Normal human peripheral blood mononuclear cells (PBMC) were separated from whole blood by Ficoll/Hypaque density gradient centrifugation. Peripheral blood samples were collected from normal donors with due approval from the Human Ethics Committee of Indian Institute of Chemical Biology, Kolkata, India, and all experiments with human blood were conducted under an approved institutional Human Ethics committee protocol. Informed consent was provided according to the Declaration of Helsinki. Cancer cell lines and PBMC (5×10^3) in triplicate were incubated in 0.2 mL of standard growth medium containing 10% FBS with varying concentrations of test compounds of the present invention. After 72 hours of incubation, cells were collected by centrifugation (at 1000 g for 5 minutes) and cell-viability was determined by the trypan blue exclusion assay. At least 200 cells were examined in each sample. Because of monolayer culture, treated and untreated PC-3, MCF-7 and MIA PaCa-2 cells were detached from the wells by treatment with Cell Dissociation Solution (Sigma Chemical, St. Louis, Mo.) before counting. Data are represented as IC50 (minimum concentration required to inhibit the viability by 50%) in Table 5.

[2] = system: chronic myeloid leukemia cell line KU812; assay: Cell viability, trypan blue exclusion, KU812; format: cell-based; settings: Homo sapiens, 72 hours incubation
Text: as §1

[3] = system: prostate cancer cell line PC-3; assay: Cell viability, trypan blue exclusion, PC-3; format: cell-based, human; settings: 72 hours incubation
Text: as §1

[4] = system: chronic myeloid leukemia cell line K562; assay: Cell viability, trypan blue exclusion, K562; format: cell-based; settings: Homo sapiens
Text: as §1

[5] = system: breast cancer cell line MCF-7; assay: Cell viability, trypan blue exclusion, MCF-7; format: cell-based, human
Text: as §1

[6] = system: T-lymphoblastic leukemia cell line Molt-4; assay: Cell viability, trypan blue exclusion, Molt-4; format: cell-based, human
Text: as §1

[7] = system: acute myeloid leukemia cell line HL60; assay: Cell viability, trypan blue exclusion, HL-60; format: cell-based; settings: Homo sapiens
Text: as §1

[8] = system: Normal human peripheral blood mononuclear cells (PBMC); assay: Cell viability, trypan blue exclusion, normal PBMC; format: cell-based; settings: 72 hours incubation
Text: as §1

U937 cells = assay: Morphology and apoptosis/necrosis in U937 cells (Giemsa; annexin V-FITC/PI flow cytometry); format: cell-based, human; settings: Compound No.1 30 μM, Compound No.7 15 μM, 24 hours, annexin V-FITC/PI
Protocol: U937 cells were treated with standard growth medium alone or with standard growth medium containing hydroxychavicol (30 μM) for 24 hours. Treated and untreated cells were stained with Giemsa and viewed under microscope (magnification ×1000). For measurement of apoptosis/necrosis, cells were left untreated or treated with Compound No. 1 (30 μM) or Compound No.7 (15 μM) for 24 hours. After washing, cells were stained with fluorescein isothiocyanate (FITC)-conjugated annexin V and propidium iodide (PI) and analysed in a flow cytometer (BD LSR, Becton Dickinson).
FIG. 2B indicates flow cytometric determination of apoptosis and necrosis by Compound No.1 (hydroxychavicol) and Compound No.7. Apoptosis and necrosis of U937 cells were induced. Cells were left untreated (extreme left panel), or incubated with Compound No.1 (30 μM) (middle panel) or Compound No.7 (extreme right panel) (15 μM) for 24 hours and processed for flow cytometry after staining with annexin V-FITC and propidium iodide (PI). Viable cells are in the lower left quadrant (stained neither by annexin V nor by PI), early apoptotic cells (stained by annexin V only) are in the lower right quadrant, late-stage apoptotic cells (stained by both annexin V and PI) are in the upper right quadrant and the necrotic cells (stained by PI only) are in the upper left quadrant.

normal human PBMC = assay: Apoptosis/necrosis of normal human PBMC by flow cytometry; format: cell-based; settings: 30 μM, 24 hours
Protocol: FIG. 2C indicates flow cytometric determination of apoptosis and necrosis of normal human PBMC by Compound 1 (30 μM) and Compound 7 (30 μM) after incubation for 24 hours.

[9] = system: acute myeloid leukemia cell line U937; assay: Cell viability, trypan blue exclusion, U937; format: cell-based; settings: Homo sapiens, U-937, 72 hours incubation
Text: as §1

[10] = system: Ehrlich ascites carcinoma (EAC); assay: Ehrlich ascites carcinoma (EAC) model in vivo; settings: 30 mg/kg body weight intraperitoneally thrice a week for three weeks, Swiss albino mice
Text: The in vitro studies indicate that hydroxychavicol and other compounds of the present invention induce killing of a variety of cancer cell lines including breast cancer cell line MCF-7 (Table 5). The MCF-7 cell line is of epithelial origin. Studies were extended in vivo in mouse model for a tumor of epithelial origin. Ehrlich ascites carcinoma is a tumor of epithelial origin (Cancer Research, 1958, 18, 1167-1185). EAC was established in Swiss albino mice as described (Biochemical and Biophysical Research Communications, 2001, 288, 658-665). Swiss albino mice were injected with EAC (2×10^6 cells/mouse) intraperitoneally. 2 days post-injection of tumor cells, these mice (5 per group) were injected intraperitoneally with Compound No. 1 (hydroxychavicol) (30 mg/kg body weight) or Compound No. 7 (30 mg/kg body weight) thrice a week for three weeks. One week after the last injection, mice were sacrificed, and viable cells from peritoneal cavity were counted microscopically. Vehicle (dimethyl sulphoxide [DMSO], 0.1%) was used as control.

[11] = Sensitivity to spontaneous autooxidation (H2O2 level, TMB reagent); format: physicochemical; settings: 30 µM, 30 min and 2 hr in medium alone, with and without Catalase; H2O2 in supernatant
Protocol: Spontaneous autooxidation of compounds having phenolic groups produce reactive oxygen species like H2O2. The enzyme Catalase breaks down H2O2 to water, We therefore incubated Compound 1 and 7 (30 µM each) for 30 min and 2 hr in medium alone in the presence and absence of Catalase. Level of H2O2 in the supernatant was then measured as reported using 3,5,3′,5′-tetramethylbenzidine (TMB) reagent (Plant Physiology, 2004, 136, 3114-3123). FIG. 1 represents the data of sensitivity of spontaneous autooxidation of Compound 1 and Compound 7.

[12] = Homo sapiens, MIA PaCa-2, 72 h, 72 hours incubation
[13] = K562, 72 hours incubation, trypan blue exclusion, read-out: Activity (IC50) K562
[14] = read-out: IC50 against chronic myeloid leukemia cancer cell lines (K562), range over both cell lines K562, KU812 and KU812 and over the listed compounds, read-out: IC50 against chronic myeloid leukemia cancer cell lines (K562, KU812)
[15] = Homo sapiens, MCF7, 72 h, 72 hours incubation
[16] = Homo sapiens, MOLT-4, 72 h, 72 hours incubation
[17] = 72 hours incubation, trypan blue exclusion, read-out: Activity (IC50) HL-60
[18] = range over both cell lines HL60 and U937 and over the listed compounds, read-out: IC50 against acute myeloid leukemia cancer cell line (HL60, U937)

Row | SMILES | IC50 [1, 12] [µM] | IC50 [2] [µM] | IC50 ([3]; Homo sapiens, 72 h) [µM] | IC50 [4, 13] [µM] | IC50 [4, 14] [µM] | IC50 ([5]; 72 hours incubation) [µM] | IC50 [5, 15] [µM] | IC50 ([6]; 72 hours incubation) [µM] | IC50 [6, 16] [µM] | IC50 [7, 17] [µM] | IC50 [7, 18] [µM] | IC50 [8] [µM] | IC50 [9] [µM] | IC50 [3] [µM] | also measured
1 | C=CCc1cc(O)c(O)cc1CC=C [Compound 2, 4,5-diallylbenzene-1,2-diol] | 30 to 70 | 25 | 25 to 70 | 13 | 13 to 52 | 40 | 25 to 70 | 30 | 15 to 50 | 25 | 13 to 60 |  |  |  | 
2 | C=CCc1ccc(O)c(O)c1CC=C [Compound 3, 3,4-diallylbenzene-1,2-diol] |  |  | 25 to 70 | 52 | 13 to 52 | 70 |  | 50 |  | 60 | 13 to 60 | 80 |  |  | IC50 ([1]; 72 hours incubation): 70 µM
3 | C=CCc1ccc(OC(C)=O)c(OC(C)=O)c1 [Compound 7, 4-allyl-1,2-phenylene diacetate] | 30 to 70 | 15 | 25 to 70 | 13 | 13 to 52 | 25 | 25 to 70 | 15 | 15 to 50 | 15 | 13 to 60 | 70 | 13 | 25 | IC50 ([1]; 72 hours incubation): 30 µM; Apoptosis and necrosis of U937 cells by flow cytometry (U937 cells): induce apoptosis and necrosis; Apoptosis and necrosis of normal human PBMC by flow cytometry (normal human PBMC): remained unaffected; In vivo efficacy against EAC tumor (viable cells from peritoneal cavity) [10]: effective in vivo in destroying EAC tumor; Sensitivity to spontaneous autooxidation [11]: resistant to spontaneous autooxidation
4 | CC(C)(C=NO)c1ccc(O)c(O)c1 [Compound 9, 2-(3,4-dihydroxyphenyl)-2-methylpropanal oxime] | 85 | 70 | 80 | 64 |  |  | 85 |  | 70 | 64 |  | 100 |  |  | 
5 | CC(C)(C#N)c1ccc(O)c(O)c1 [Compound 10, 2-(3,4-dihydroxyphenyl)-2-methylpropanenitrile] | 120 | 115 | 120 | 113 |  |  | 100 |  |  | 110 |  | 150 | 110 |  | 
6 | CC(=O)ON=CC(C)(C)c1ccc(OC(C)=O)c(OC(C)=O)c1 [Compound 12, 4-(1-(acetoxyimino)-2-methylpropan-2-yl)-1,2-phenylene diacetate] |  | 190 | 200 | 194 |  |  | 200 |  | 190 | 190 |  | 250 | 190 |  | 
7 | CCOC(=O)/C=C/C(C)(C)c1ccc(O)c(O)c1 [Compound 13, (E)-ethyl 4-(3,4-dihydroxyphenyl)-4-methylpent-2-enoate] | 30 to 70 | 45 |  | 50 | 13 to 52 | 70 |  | 45 |  | 50 | 13 to 60 | 75 | 45 | 70 | 
8 | C=CC(C)(C)c1ccc2c(c1)OCO2 [Compound 14, 5-(2-methylbut-3-en-2-yl)benzo[d][1,3]dioxole] |  | 650 |  | 657 |  |  |  |  |  | 670 |  | 800 | 670 |  | IC50 ([1]; Homo sapiens, MIA PaCa-2, 72 hours incubation): 680 µM; IC50 ([3]; Homo sapiens): 670 µM; IC50 ([5]; Homo sapiens, MCF7, 72 hours incubation): 680 µM; IC50 ([6]; Homo sapiens, MOLT-4, 72 hours incubation): 650 µM
9 | C=CCc1cccc(O)c1O [Compound 16, 3-allyl-benzene-1,2-diol] | 30 to 70 | 25 | 25 to 70 | 20 | 13 to 52 |  | 25 to 70 | 20 | 15 to 50 | 20 | 13 to 60 | 30 | 25 | 30 | 
10 | C=CCc1cccc(OC(C)=O)c1OC(C)=O [Compound 19, 3-allyl-1,2-phenylene diacetate] | 20 | 20 | 20 | 13 |  |  | 20 |  | 20 | 15 |  | 30 | 15 |  | 
